# From ChEMBL document CHEMBL1130952, “NMR and topochemical studies of peptidomimetic HIV-I protease inhibitors containing a cis-epoxide amide isostere” (Bioorg Med Chem Lett, 1998)
# Legend:
# [1] = biological target: Human immunodeficiency virus type 1 protease (Human immunodeficiency virus 1) (UniProt Q72874); experiment: Second order rate constant was determined for the irreversible inhibition of HIV-1 protease; value ranges from 10e8- 10e10
# [2] = biological target: Human immunodeficiency virus type 1 protease (Human immunodeficiency virus 1, UniProt Q72874); experiment: Compound was tested for 50% irreversible inhibition of HIV-1 protease; value ranges from 10-50
smiles,measurement,setting,value
CC(C)[C@H](Cc1ccccc1)NC(=O)C[C@@H]1O[C@@H]1[C@H](Cc1ccccc1)NC(=O)[C@H](CC(N)=O)NC(=O)c1ccc2ccccc2n1,K inact/Ki,[1],1.67e+06 M⁻¹ s⁻¹
same,IC50,[2],10 nM
CONC(=O)[C@H](NC(=O)C[C@@H]1O[C@@H]1[C@H](Cc1ccccc1)NC(=O)[C@H](CC(N)=O)NC(=O)c1ccc2ccccc2n1)C(C)C,K inact/Ki,[1],1.67e+06 M⁻¹ s⁻¹
same,IC50,[2],10 nM
CC(C)[C@@H](NC(=O)C[C@@H]1O[C@@H]1[C@H](Cc1ccccc1)NC(=O)[C@H](CC(N)=O)NC(=O)c1ccc2ccccc2n1)c1ccccc1,K inact/Ki,[1],1.67e+06 M⁻¹ s⁻¹
same,IC50,[2],10 nM
